From patent US8980792B2, “Compositions comprising abscisic acid and a fungicidally active compound” (Syngenta Participations AG, priority 2010, dated 2015)

Test system: Mycosphaerella graminicola (Septoria tritici)
Assay: Septoria tritici leaf spot on wheat, preventative foliar spray test
Assay type: in vivo
Description: Mycosphaerella graminicola (Septoria tritici)/Wheat/Preventative (Septoria tritici Leaf Spot on Wheat)
The isopyrazam is formulated as an emulsion concentrate formulation and mixed with water to form a stock solution and ultrasonically agitated in order to achieve homogeneous distribution. Spray solutions are made up from the stock solution by dilution in water/isopropanol (10% isopropanol v/v), with abscisic acid added where needed as a tank mix to the diluted stock solution, and mechanically stirred just before spraying. Foliar application is at 200 L/ha using an application device spraying with a single nozzle (Lechler type) 60 cm above the plants. Typically two-week old wheat plants cv. Riband are sprayed with the spray solution in the spray chamber of the application device. The test plants are inoculated by spraying a spore suspension on them one day after application. After an incubation period of 1 day at typically 22° C./21° C. (day/night) and 95% rh, the inoculated test plants are kept at typically 22° C./21° C. (day/night) and 70% rh in a greenhouse. Percentage efficacy is assessed by direct visual comparison to untreated check plants when an appropriate level of disease appears on the untreated checks (typically 14-19 days after application).

| Structure (SMILES) | % Disease Control (isopyrazam 2.44 mg/ml alone) [%] | % Disease Control (isopyrazam 9.77 mg/ml alone) [%] | % Disease Control (isopyrazam 39.06 mg/ml alone) [%] | % Disease Control (isopyrazam 156.25 mg/ml alone) [%] | % Disease Control (isopyrazam 625.00 mg/ml alone) [%] | % Disease Control (abscisic acid 0.0025 % w/v alone, foliar spray 200 L/ha, wheat) [%] | % Disease Control (abscisic acid 0.0238 % w/v alone, foliar spray 200 L/ha, wheat) [%] |
| --- | --- | --- | --- | --- | --- | --- | --- |
| CC(C)C1C2CCC1c1c(NC(=O)c3cn(C)nc3C(F)F)cccc12 (stereo not shown) [Isopyrazam] | 3 | 10 | 50 | 67 | 80 |  |  |
| CC1=CC(=O)CC(C)(C)[C@@]1(O)/C=C/C(C)=C\C(=O)O [Abscisic acid] |  |  |  |  |  | 0 | 0 |
